Earlier results as cited in patent publication US20030232019A1, “Inhalable formulations for sustained release” (Advanced Inhalation Research, Inc., priority 2002, published 2003).

Settings: healthy volunteers after inhalation

## insulin
  time to half-maximal action (glucose infusion rate): about 30 minutes
